Assay results as given in publication PMC3034713, “Targeting Vascular NADPH Oxidase 1 Blocks Tumor Angiogenesis through a PPARα Mediated Mechanism” (PLoS ONE, 2011).

How the values were obtained:
[1] = system: PI3K a, b, d, g; experiment: Pharmacological profiling (Cerep), Table S1
[2] = system: LLC1; experiment: Tumor cell apoptosis (AnnexinV/PI staining); assay type: cell-based; conditions: 10 μM, 24h
Protocol: (§1) Supplementary file pone.0014665.s008.tif: Figure S7 Effect of GKT 136901 on tumor cells. a. LLC1 and B16F0 cell proliferation was measured by EdU incorporation and propidium iodide staining of DNA content, 24h after incubation with 10 μM of GKT136901. b. LLC1 apoptosis was measured by AnnexinV/PI staining after 24h of incubation with 10 μM of GKT136901. c. ROS levels produced by LLC1 are inhibited by GKT136901. ROS production was quantified by DHE substrate 1h after incubation with 10 μM of the inhibitor. *** p<0.001 (student t-test). (6.11 MB TIF) Click here for additional data file.

[3] = system: MLEC; experiment: Endothelial cell sprouting assay (tube-like structure formation, 3D culture); assay type: cell-based, mouse; conditions: MLEC, 10 µM
Protocol: Sprouting assay was performed as described previously. Briefly, endothelial cells were plated in 96 well plates at 8,000 cells per well in a 3D fibrin gel. Above the gel, 10% FCS containing DMEM was complemented with 200 KIU/ml of Aprotinin (Sigma). Length of branches was evaluated using the Metamorph program. Results are expressed in mm of skeleton length/number of cells.

[4] = molecular target: eNos (Homo sapiens, UniProt P29474); experiment: Pharmacological profiling (Cerep), Table S1
[5] = molecular target: MPO (Homo sapiens, UniProt P05164); experiment: Pharmacological profiling (Cerep), Table S1
Sequence of MPO (P05164 49-745, species assumed): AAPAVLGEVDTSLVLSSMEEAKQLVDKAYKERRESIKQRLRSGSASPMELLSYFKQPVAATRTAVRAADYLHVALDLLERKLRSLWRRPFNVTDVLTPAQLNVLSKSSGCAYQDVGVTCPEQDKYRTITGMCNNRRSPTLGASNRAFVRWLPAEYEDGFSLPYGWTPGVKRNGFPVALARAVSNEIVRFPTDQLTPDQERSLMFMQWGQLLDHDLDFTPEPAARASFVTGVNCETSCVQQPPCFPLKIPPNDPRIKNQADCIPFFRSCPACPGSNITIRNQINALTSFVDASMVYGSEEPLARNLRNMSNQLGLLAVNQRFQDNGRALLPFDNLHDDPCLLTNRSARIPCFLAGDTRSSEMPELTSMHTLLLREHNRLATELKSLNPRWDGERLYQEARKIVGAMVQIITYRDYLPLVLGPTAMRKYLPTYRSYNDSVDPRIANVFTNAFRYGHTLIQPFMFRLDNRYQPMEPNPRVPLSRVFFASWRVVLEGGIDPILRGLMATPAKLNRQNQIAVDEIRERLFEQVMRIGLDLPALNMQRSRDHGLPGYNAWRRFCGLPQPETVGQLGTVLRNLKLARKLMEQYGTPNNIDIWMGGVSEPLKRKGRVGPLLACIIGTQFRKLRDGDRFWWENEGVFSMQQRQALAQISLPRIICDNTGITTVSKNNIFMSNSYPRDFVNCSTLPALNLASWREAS

[6] = system: PKC a, bI, bII, d; experiment: Pharmacological profiling (Cerep), Table S1
[7] = molecular target: T1, NOX4 (Homo sapiens, UniProt Q9NPH5); experiment: NOX inhibition in cell free assay, membranes from cells overexpressing NOX4 (Amplex Red ROS); assay type: biochemical; conditions: Figure S2
T1 construct: expressed in transfected cells
T1 sequence (Q9NPH5 whole entry, species assumed, one chain of several): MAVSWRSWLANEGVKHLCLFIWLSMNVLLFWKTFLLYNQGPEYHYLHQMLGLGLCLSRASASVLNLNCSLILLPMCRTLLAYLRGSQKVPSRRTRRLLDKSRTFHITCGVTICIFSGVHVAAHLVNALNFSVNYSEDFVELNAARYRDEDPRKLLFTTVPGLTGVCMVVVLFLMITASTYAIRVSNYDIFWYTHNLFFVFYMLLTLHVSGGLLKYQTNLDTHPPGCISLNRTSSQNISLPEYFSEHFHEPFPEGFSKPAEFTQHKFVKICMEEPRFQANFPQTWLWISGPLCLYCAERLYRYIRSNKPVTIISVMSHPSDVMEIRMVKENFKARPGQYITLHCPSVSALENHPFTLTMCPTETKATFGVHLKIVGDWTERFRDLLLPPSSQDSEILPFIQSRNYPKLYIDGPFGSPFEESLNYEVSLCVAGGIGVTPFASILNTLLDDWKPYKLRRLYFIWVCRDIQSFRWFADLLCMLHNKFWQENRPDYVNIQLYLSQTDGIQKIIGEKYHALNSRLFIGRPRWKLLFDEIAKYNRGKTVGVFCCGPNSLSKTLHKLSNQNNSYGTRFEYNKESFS
Protocol: (§2) Membranes from NOX2 expressing PMN cells or from cells overexpressing NOX1 or NOX4 were prepared as previously described. After resuspension in sonication buffer (11% sucrose, 120 mM NaCl, 1 mM EGTA in PBS, pH 7.4 for NOX4-expressing cells) or in relax buffer (10 mM Pipes, 3 mM NaCl, 3.5 mM MgCl2, 0.1 M KCl, pH 7.4), cells were broken by sonication and centrifuged (200 g, 10 min). The supernatant was loaded onto a 17/40% (w/v) discontinuous sucrose gradient and centrifuged (150,000 g for 30 min). Membrane fractions were collected and stored at −80°C. ROS production measurements of membranes expressing different NOX subunits was determined as previously described using the Amplex Red method (Invitrogen).

[8] = system: MLEC; experiment: Wound healing assay (endothelial cell migration); assay type: cell-based, mouse
Protocol: Wound healing assay was performed as described previously. Briefly, endothelial cells were plated in Matrigel (Becton Dickinson) precoated 96 wells plates. One day after plating the cell monolayer was scratched to make a regular wound. Cells were allowed to migrate overnight. Migration area was then measured and calculated using the Metamorph program (MDS Analytical Technologies).

[9] = system: LLC1 and B16F0 cells; experiment: Tumor cell proliferation (EdU incorporation, propidium iodide); assay type: cell-based; conditions: 10 μM, 24h
Protocol: as §1

[10] = system: B16F0 tumors; experiment: Tumor growth assay, B16F0 injected subcutaneously; assay type: in vivo, mice; conditions: 40 mg/kg/day oral for 8 days
Protocol: 5. 10^5 of LLC1 or B16F0 were injected subcutaneously on the back of mice. Mice were treated with NOX inhibitor, GKT136901 or vehicle (Carboxymethyl-cellulose, CMC) at 40 mg/kg everyday per os or i.p with anti-VEGFR2 antibody (DC101) at 0.8 mg every 2 days. When the control tumor reached approximately 1 cm in length, mice were sacrificed and the tumor excised, weighed and frozen. Frozen sections of tumors were stained with anti-PECAM-1 antibody (rat monoclonal, [74]).

[11] = molecular target: 12-Lipoxygenase (Homo sapiens, UniProt P18054); experiment: Pharmacological profiling (Cerep), Table S1
Sequence of 12-Lipoxygenase (P18054 whole entry): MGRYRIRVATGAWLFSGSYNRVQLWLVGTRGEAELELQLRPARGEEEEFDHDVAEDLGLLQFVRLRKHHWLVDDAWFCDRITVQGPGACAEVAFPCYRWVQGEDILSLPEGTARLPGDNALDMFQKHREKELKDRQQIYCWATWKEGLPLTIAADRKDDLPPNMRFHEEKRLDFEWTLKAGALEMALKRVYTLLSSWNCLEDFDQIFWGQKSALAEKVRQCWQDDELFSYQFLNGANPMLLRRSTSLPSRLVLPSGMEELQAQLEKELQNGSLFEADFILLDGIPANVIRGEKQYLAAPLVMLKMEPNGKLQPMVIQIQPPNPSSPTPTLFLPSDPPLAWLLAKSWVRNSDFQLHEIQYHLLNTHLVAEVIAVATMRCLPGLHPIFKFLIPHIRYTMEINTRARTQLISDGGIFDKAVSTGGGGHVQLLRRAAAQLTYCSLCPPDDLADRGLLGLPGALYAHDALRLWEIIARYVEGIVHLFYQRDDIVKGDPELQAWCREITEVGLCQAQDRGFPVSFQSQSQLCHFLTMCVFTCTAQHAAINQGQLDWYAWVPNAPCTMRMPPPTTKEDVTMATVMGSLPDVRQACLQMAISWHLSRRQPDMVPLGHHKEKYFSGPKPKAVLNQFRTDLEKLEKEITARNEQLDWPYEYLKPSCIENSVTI

[12] = molecular target: xanthine oxidase (Homo sapiens, UniProt P47989); experiment: Xanthine oxidase inhibition, concentration-response; assay type: biochemical
Sequence of xanthine oxidase (P47989 whole entry, species assumed): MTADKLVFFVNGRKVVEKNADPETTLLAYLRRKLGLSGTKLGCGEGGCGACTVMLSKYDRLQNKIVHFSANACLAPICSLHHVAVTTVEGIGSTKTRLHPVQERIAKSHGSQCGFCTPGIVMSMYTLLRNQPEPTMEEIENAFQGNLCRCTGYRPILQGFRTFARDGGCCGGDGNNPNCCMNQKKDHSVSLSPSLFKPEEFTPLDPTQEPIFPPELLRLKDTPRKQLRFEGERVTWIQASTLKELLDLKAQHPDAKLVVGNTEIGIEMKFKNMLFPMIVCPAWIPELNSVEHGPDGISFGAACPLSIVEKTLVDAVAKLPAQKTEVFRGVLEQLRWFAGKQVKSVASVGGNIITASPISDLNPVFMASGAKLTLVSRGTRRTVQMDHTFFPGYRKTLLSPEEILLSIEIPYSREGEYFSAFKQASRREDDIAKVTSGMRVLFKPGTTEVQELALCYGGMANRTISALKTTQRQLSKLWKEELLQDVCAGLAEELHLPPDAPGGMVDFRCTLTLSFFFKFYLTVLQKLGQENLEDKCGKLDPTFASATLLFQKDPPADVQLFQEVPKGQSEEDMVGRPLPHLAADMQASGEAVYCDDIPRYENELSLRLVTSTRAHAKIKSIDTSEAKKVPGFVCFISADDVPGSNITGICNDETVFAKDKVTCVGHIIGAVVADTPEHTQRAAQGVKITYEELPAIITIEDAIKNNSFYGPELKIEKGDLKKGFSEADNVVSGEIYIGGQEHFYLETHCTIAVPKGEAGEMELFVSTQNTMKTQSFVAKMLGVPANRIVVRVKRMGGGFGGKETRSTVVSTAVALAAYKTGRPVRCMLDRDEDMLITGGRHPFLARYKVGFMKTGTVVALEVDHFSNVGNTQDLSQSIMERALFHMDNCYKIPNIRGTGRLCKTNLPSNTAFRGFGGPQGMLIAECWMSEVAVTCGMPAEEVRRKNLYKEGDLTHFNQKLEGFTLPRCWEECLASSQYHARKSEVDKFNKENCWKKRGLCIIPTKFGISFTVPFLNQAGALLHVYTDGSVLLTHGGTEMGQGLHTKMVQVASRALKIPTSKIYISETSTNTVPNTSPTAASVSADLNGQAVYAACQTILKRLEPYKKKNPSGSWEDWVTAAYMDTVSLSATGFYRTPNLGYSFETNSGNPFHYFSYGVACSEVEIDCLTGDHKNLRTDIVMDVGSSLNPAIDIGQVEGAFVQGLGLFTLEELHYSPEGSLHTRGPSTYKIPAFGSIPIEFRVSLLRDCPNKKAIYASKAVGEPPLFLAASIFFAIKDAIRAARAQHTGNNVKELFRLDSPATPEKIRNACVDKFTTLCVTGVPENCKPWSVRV

[13] = molecular target: T2, NOX1 (Homo sapiens, UniProt Q9Y5S8); experiment: NOX inhibition in cell free assay, membranes from cells overexpressing NOX1 (Amplex Red ROS); assay type: biochemical
T2 construct: expressed in transfected cells
T2 sequence (Q9Y5S8 1-564): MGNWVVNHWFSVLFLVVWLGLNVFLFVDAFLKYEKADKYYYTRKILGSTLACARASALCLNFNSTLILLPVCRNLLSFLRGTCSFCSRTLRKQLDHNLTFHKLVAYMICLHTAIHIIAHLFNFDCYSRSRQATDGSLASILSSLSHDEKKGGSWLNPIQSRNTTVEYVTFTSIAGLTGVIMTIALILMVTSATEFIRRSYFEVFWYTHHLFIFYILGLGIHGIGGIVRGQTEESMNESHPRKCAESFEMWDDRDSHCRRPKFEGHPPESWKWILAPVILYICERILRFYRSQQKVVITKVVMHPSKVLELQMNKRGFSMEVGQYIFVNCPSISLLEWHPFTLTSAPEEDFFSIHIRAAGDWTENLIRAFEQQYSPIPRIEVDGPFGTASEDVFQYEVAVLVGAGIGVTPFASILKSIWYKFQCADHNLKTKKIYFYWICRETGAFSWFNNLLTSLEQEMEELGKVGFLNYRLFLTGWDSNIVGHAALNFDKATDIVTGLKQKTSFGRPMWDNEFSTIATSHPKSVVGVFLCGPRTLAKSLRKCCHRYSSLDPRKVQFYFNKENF
T2 sequence (P13498 2-195 partner limits assumed): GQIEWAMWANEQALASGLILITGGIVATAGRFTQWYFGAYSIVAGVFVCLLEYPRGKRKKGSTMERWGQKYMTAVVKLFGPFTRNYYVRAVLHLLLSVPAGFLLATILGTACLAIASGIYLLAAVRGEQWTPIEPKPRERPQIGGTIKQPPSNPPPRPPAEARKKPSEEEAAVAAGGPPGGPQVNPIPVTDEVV
Protocol: as §2

[14] = system: LLC1; experiment: ROS production by tumor cells (DHE substrate); assay type: cell-based; conditions: 10 μM, 1h
Protocol: as §1

[15] = system: Heart, Kidney, Liver and Lung of mice; conditions: mouse, in vivo
Protocol: Supplementary file pone.0014665.s009.tif: Figure S8 Non toxic effect GKT 136901 on mice organs. Heart (a), Kidney (b), Liver (c) and Lung (d) of mice treated orally with vehicle or with vehicle plus GKT136901 inhibitor at 40 mg/kg per day during 8 days, stained by Hematoxilin/Eosin. Scale bars represent 100 μm on the full picture and 20 μm on the zoom. Images were acquired with a 20x/0.8 numeric aperture and analyzed using Mirax (Carl Zeiss). (8.38 MB TIF) Click here for additional data file.

Cc1c2c(=O)n(-c3ccccc3Cl)[nH]c2cc(=O)n1Cc1ccccn1 [GKT136901]
% Inhibition at 10 µM [1]: 0%
tumor cell apoptosis in vitro [2]: did not interfere
tube formation [3]: inhibition
% Inhibition at 10 µM [4]: 6%
% Inhibition at 10 µM [5]: 0%
% Inhibition at 10 µM [6]: 0%
extent of inhibition of oxidase activity of NOX4 [7]: completely inhibits
endothelial cell migration ([8]; MLEC, 10 µM): inhibition
endothelial cell migration or invasion in PPARα-deficient cells ([8]; PPARα-deficient endothelial cells, data not shown): did not affect
tumor cell proliferation in vitro [9]: did not interfere
tumor vascularization (PECAM-1), vehicle = 100% ([10]; B16F0 in PPARα deficient mice): 98% ±24
tumor vascularization (PECAM-1), vehicle = 100% ([10]; B16F0 in WT mice): 64% ±14
% Inhibition at 10 µM [11]: 2%
Ki [12]: > 100000 nM
extent of inhibition of oxidase activity of NOX1 ([13]; Figure S2): completely inhibits
Ki ([13]; cell-free, membranes from NOX1 over-expressing cells): 160 ± 10 nM
ROS levels produced by LLC1 [14]: inhibited
toxic effect on mice (organ histology) [15]: no toxic effect
